20 molecules from patent publication US11040036B2, “Pyruvate kinase activators for use in treating blood disorders” (Agios Pharmaceuticals, Inc., priority 2017, dated 2021) can be followed below.

Structures are written as SMILES. Bounds are passed on as bounds.

One assay deals with PKR K410E (Homo sapiens, UniProt P30613, K410E). The experiment in a line: PKR mutant assay (AC50), PKR K410E. Type of assay: biochemical. The conditions noted are these: PKR K410E mutant enzyme. Put shortly:
(§1)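 Compounds were tested from 100 μM final, 3-fold over 11 points, and held 60 min at room temperature with enzyme (40-400 ng/well wild-type, R510Q or K410E PKR). ADP 0.2-1.65 mM then started the reaction, with PEP 0.1-0.5 mM in pH 7.5 Tris/KCl/MgCl2 buffer. LDH/NADH (180 μM) coupled read-out was taken as A340 change, fitted to AC50.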

The next assay deals with PKR R510Q (Homo sapiens, UniProt P30613, R510Q). Put plainly: PKR mutant assay (AC50), PKR R510Q. In kind it is biochemical. The conditions noted are these: PKR R510Q mutant enzyme; read-out: PK R510Q AC50. Put shortly: as §1
PKR R510Q, sequence (P30613 whole entry R510Q): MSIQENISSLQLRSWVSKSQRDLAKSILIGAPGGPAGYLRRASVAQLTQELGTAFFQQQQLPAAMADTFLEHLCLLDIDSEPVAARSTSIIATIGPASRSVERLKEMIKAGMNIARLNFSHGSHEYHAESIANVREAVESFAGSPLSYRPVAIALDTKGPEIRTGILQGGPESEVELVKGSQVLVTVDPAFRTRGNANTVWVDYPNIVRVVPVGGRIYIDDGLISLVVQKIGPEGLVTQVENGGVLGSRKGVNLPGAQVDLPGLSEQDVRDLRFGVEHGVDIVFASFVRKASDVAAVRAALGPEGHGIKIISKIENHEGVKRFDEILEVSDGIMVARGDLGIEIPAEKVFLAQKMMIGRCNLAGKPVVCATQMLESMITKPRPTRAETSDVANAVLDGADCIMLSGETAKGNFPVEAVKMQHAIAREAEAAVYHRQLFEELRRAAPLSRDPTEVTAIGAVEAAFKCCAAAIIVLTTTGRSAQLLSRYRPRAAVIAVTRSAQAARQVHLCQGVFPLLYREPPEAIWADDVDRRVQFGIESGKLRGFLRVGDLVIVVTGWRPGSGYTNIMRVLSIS
Assay [1] deals with T1, wild type PKR (Homo sapiens, UniProt P30613). The experiment in a line: Cell based ATP assay in purified red blood cells. The conditions noted are these: RBCs, overnight at 37° C., ATP levels by Cell-Titer-Glo. Also noted: endogenous in cells; host or cells: purified red blood cells from blood of healthy volunteers. The essentials:
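ATP content was measured by CellTiter-Glo after overnight exposure to compound at 37 °C. Cells were purified red blood cells from healthy donors, filtered to remove leukocytes and suspended at 1×10^7 cells/mL in AGAM medium. Compounds were serially diluted 1:4, with 0.1% DMSO final.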

For assay [2], the target named is T1, wild type PKR. The experiment in a line: PKR mutant assay (AC50), wild type PKR. Type of assay: biochemical. The conditions noted are these: wild type PKR enzyme; read-out: PKR WT AC50. The essentials:
as §1

T1 sequence (P30613 whole entry): as the sequence (P30613 whole entry R510Q) above, with Q510R counted along it
PKR K410E, sequence (P30613 whole entry K410E): as the sequence (P30613 whole entry R510Q) above, with K410E, Q510R counted along it

By AC50 is commonly meant the concentration at which the activity in the assay is half-maximal. Take `Cn1c2nc(Cc3ccccn3)sc2c2cnn(Cc3cccc(N)n3)c(=O)c21`: the AC50 at PKR K410E was less than 300 nM; at PKR R510Q it was less than 300 nM; on wild type PKR [1], no more than 1000 nM; on wild type PKR [2], less than 300 nM.

As to `Cc1scnc1Cc1nc2c(s1)c1cnn(Cc3ccn[nH]3)c(=O)c1n2C`, the AC50 at PKR K410E was less than 300 nM; on PKR R510Q, less than 300 nM; on wild type PKR [1], no more than 1000 nM; on wild type PKR [2], less than 300 nM.

Regarding `COc1c[nH]nc1Cn1ncc2c3sc(Cc4n[nH]cc4F)nc3n(C)c2c1=O`, the AC50 on PKR K410E was less than 300 nM; on PKR R510Q it was less than 300 nM; at wild type PKR [1], no more than 1000 nM; at wild type PKR [2] it was less than 300 nM.

With `Cn1c2nc(Cc3cc[nH]n3)sc2c2cnn(Cc3ccns3)c(=O)c21`, the AC50 was less than 300 nM on PKR K410E, less than 300 nM at PKR R510Q, no more than 1000 nM on wild type PKR [1] and less than 300 nM at wild type PKR [2].

`Cn1c2nc(Cc3cc[nH]n3)sc2c2cnn(Cc3ccnn3N)c(=O)c21`: the AC50 on PKR K410E is less than 300 nM; at PKR R510Q, less than 300 nM; at wild type PKR [1], no more than 1000 nM; at wild type PKR [2], less than 300 nM.

With `Cn1c2nc(Cc3cscn3)sc2c2cnn(Cc3cccc(N)n3)c(=O)c21`, the AC50 on PKR K410E is less than 300 nM; on PKR R510Q it was less than 300 nM; at wild type PKR [1], no more than 1000 nM; at wild type PKR [2], less than 300 nM.

On to `Cn1cc(C(N)=O)c(Cn2ncc3c4sc(Cc5cc[nH]n5)nc4n(C)c3c2=O)n1`, for which the AC50 at PKR K410E was 301 to 800 nM; on PKR R510Q, greater than 800 nM; on wild type PKR [1] it was greater than 1000 nM; on wild type PKR [2] it was greater than 800 nM.

Regarding `Cn1c2nc(Cc3cc[nH]n3)sc2c2cnn(Cc3nc(C(N)=O)cs3)c(=O)c21`, the AC50 is less than 300 nM at PKR K410E, less than 300 nM at PKR R510Q, no more than 1000 nM on wild type PKR [1] and less than 300 nM on wild type PKR [2].

As for `Cn1c2nc(Cc3ccn[nH]3)sc2c2cnn(Cc3cn[nH]c3)c(=O)c21`, the half-maximal activity concentration (AC50) on PKR K410E is less than 300 nM; on PKR R510Q, less than 300 nM; on wild type PKR [1], no more than 1000 nM; on wild type PKR [2] it was less than 300 nM.

As to `Cn1c2nc(Cc3ncsc3Br)sc2c2cnn(Cc3cc[nH]n3)c(=O)c21`, the AC50 at PKR K410E was less than 300 nM; on PKR R510Q it was less than 300 nM; at wild type PKR [1], no more than 1000 nM; at wild type PKR [2] it was less than 300 nM.

Consider `Cn1c2nc(Cc3cc[nH]n3)sc2c2cnn(Cc3cncs3)c(=O)c21`, for which the AC50 at PKR K410E is less than 300 nM; on PKR R510Q it was less than 300 nM; on wild type PKR [1], no more than 1000 nM; at wild type PKR [2], less than 300 nM.

Turning to `Cn1c2nc(Cc3c[nH]nn3)sc2c2cnn(Cc3csc(N)n3)c(=O)c21`, the AC50 is less than 300 nM at PKR K410E, less than 300 nM at PKR R510Q, no more than 1000 nM on wild type PKR [1] and less than 300 nM on wild type PKR [2].

In the case of `Cn1c2nc(Cc3ccccn3)sc2c2cnn(Cc3n[nH]cc3Cl)c(=O)c21`, the AC50 at PKR K410E was less than 300 nM; at PKR R510Q it was less than 300 nM; on wild type PKR [1], no more than 1000 nM; on wild type PKR [2] it was less than 300 nM.

As for `Cc1scnc1Cn1ncc2c3sc(Cc4cc[nH]n4)nc3n(C)c2c1=O`, the AC50 at PKR K410E was less than 300 nM; on PKR R510Q, less than 300 nM; on wild type PKR [1], no more than 1000 nM; on wild type PKR [2], less than 300 nM.

Turning to `Cn1c2nc(Cc3cccc(N)n3)sc2c2cnn(Cc3cscn3)c(=O)c21`, the AC50 on PKR K410E was less than 300 nM; on PKR R510Q it was less than 300 nM; on wild type PKR [1], no more than 1000 nM; at wild type PKR [2], less than 300 nM.

For `Cn1c2nc(Cc3c[nH]nn3)sc2c2cnn(Cc3nccs3)c(=O)c21`, the AC50 on PKR K410E was less than 300 nM; at PKR R510Q, less than 300 nM; at wild type PKR [1], no more than 1000 nM; at wild type PKR [2], 301 to 800 nM.

Turning to `Cn1cc(CC(N)=O)c(Cn2ncc3c4sc(Cc5cc[nH]n5)nc4n(C)c3c2=O)n1`, the AC50 at PKR K410E was greater than 800 nM; on PKR R510Q, greater than 800 nM; on wild type PKR [1], greater than 1000 nM; at wild type PKR [2], greater than 800 nM.

Take `Cn1c2nc(Cc3cc[nH]n3)sc2c2cnn(Cc3c[nH]cn3)c(=O)c21`: the AC50 on PKR K410E was less than 300 nM; on PKR R510Q it was less than 300 nM; at wild type PKR [1], no more than 1000 nM; on wild type PKR [2], less than 300 nM.

Turning to `Cn1c2nc(Cc3cscn3)sc2c2cnn(Cc3c[nH]nn3)c(=O)c21`, the AC50 is less than 300 nM on PKR K410E, less than 300 nM on PKR R510Q, no more than 1000 nM at wild type PKR [1] and less than 300 nM on wild type PKR [2].

In the case of `Cn1c2nc(Cc3csc(CO)n3)sc2c2cnn(Cc3nccs3)c(=O)c21`, the AC50 at PKR K410E is less than 300 nM; on PKR R510Q, less than 300 nM; on wild type PKR [1] it was no more than 1000 nM; at wild type PKR [2], less than 300 nM.
